The text below walks through data of patent publication US10111822B2, “External dermal composition for anti-ageing and method for producing the same” (Hayashibara Co., Ltd., priority 2012, dated 2018).

What all share (assay type): cell-based, human
One test relates to NHEK cells. The test can be described thus: Proliferation of NHEK cells (methylene blue staining). The settings on record: 4 days. The source says:
Normal human epidermal keratinocytes from neonatal foreskin (commercialized by Kurabo Industries Ltd., Osaka, Japan, and abbreviated as “NHEK cells”, hereinafter) were suspended in EpiLife medium (commercialized by Invitrogen Corporation, Calif., USA) supplemented with a cell-growth supplement (EDGS: EpiLife Defined Growth Supplement) (EpiLife medium supplemented with EDGS is abbreviated as “EpiLife medium”, hereinafter), and subjected to passage cultures at a confluent density of 60 to 80% under a 5% v/v CO2 condition and at 37° C. The proliferated cells were detached from culture vessels, suspended in HuMedia-KB2 medium (commercialized by Kurabo Industries Ltd., Osaka, Japan) to give a cell density of 7.5×10^3 cells/mL, inoculated to 24-well plates coated with collagen (“Cell matrix Type IV”, a product name of Nitta Gelatin Inc., Osaka, Japan) in a volume of 0.4 mL/well, and cultured for one day under a 5% v/v CO2 condition and at 37° C. […] Then, the resulting cells were washed with distilled water and admixed with 0.33 N hydrochloric acid in a volume of 0.5 mL/well to extract the dye (methylene blue), followed by transferring the resulting extract to 96-well plates in a volume of 0.1 mL/well for measuring the absorbance at wavelengths of 595 nm and 650 nm. The values, obtained by subtracting the absorbance at a wavelength of 650 nm from that of 595 nm, were regarded as indexes of cell growth rates, which were relatively evaluated by regarding the value, as a control, obtained with KB2-HI medium free of ascorbic acid 2-glucoside as 100%.

The test system of the next test is glutathione. Put plainly: Production level of glutathione in NHEK cells. The settings on record: 24 h, control = 100%. As for the experimental part:
Continuously-cultivated NHEK cells in EpiLife medium were collected, resuspended in EpiLife medium, inoculated to culture plates with 10 cm in diameter in an amount of 1×10^6 cells/10 mL/plate, and cultured for 24 hours. Thereafter, each culture supernatant was removed by sucking, and any of the test solutions was added to the remaining cells in a volume of 10 mL/plate, followed by culturing the cells for another 24 hours. As a control, cells were added with only D-MEM medium in an amount of 10 mL/plate and cultured for 24 hours. Each culture supernatant was removed from each plate, then ice-chilled Dulbecco's PBS (−), commercialized by Nissui Pharmaceutical Co., Ltd., Tokyo, Japan, was added to rinse the remaining cells, which were then collected with a scraper. Glutathione was quantified on “Glutathione Assay Kit”, a product name of glutathione assay kit commercialzied by BioVision, Inc., San Francisco, USA. In this experiment, the control and test solutions in respective three plates were assayed for glutathione production level for each plate and averaged for obtaining the glutathione production level of each solution. A 5% v/v CO2 incubator was used for culturing NHEK cells in any case. Relative values of test samples were determined with the proviso that the production levels of reduced glutathione and total glutathione in NHEK cells that had been cultured with only EpiLife medium were respectively regarded as 100%, and the results are in Table 5.

The next test relates to ZO-1. The test can be described thus: TJ-related protein ZO-1 in NHEK cells (Western). The settings on record: 3 days, CaCl2 positive control = 100%, no addition 38%. As for the experimental part:
The following experiment was conducted to examine the effect of ascorbic acid 2-glucoside on the production of TJ-related proteins that constitute cell-cell adhesion structures by focusing on occludin and ZO-1 that are focused on as TJ-related proteins known to exist in a granular layer of epidermis: As a model for typical normal human epidermal cells, NHEK cells were suspended in EpiLife medium (pH 7.4); inoculated to 12-well microplates at a cell density of 1×10^5 cells/well; cultured overnight under the conditions of 37° C. and 5% v/v CO2; and further cultured for three days under the conditions of 37° C. and 5% v/v CO2 after adding either CaCl2 as a positive control to each well to give a final concentration of 0.5 mM, or “AA2G”, a product name of a particulate composition containing anhydrous crystalline ascorbic acid 2-glucoside, commercialized by Hayashibara Co., Ltd., Okayama, Japan, to give a final concentration of 0.5 or 1 mM. […] A sample of 20 μg protein for each lane per each cell extract in respective wells was applied to sodium dodecyl sulfate polyacrylamide gel electrophoresis (SDS-PAGE) with 10% w/v SDS containing DTT, followed by assaying the concentration of occludin or ZO-1 in each cell extract with “Luminate Western HRP Substrates”, a product name of a premixed, ready-to-use chemiluminescent detection reagent using an internal standard “α-Tubulin”, commercialized by Merck KGaA, Darmstadt, Germany, wherein there were used “F-11”, a product name of an anti-occludin mouse monoclonal antibody, commercialized by Santa Cruz Biotechnology, Inc., Texas, USA, or “ZO1-1A12”, a product name of a ZO-1 mouse monoclonal antibody, commercialized by Invitrogen Corporation, Calif., USA, was used as a first antibody; and “PO447”, a product name of a horseradish peroxidase (HRPO) labeled anti-mouse IgG, commercialized by DAKO Japan Inc., Tokyo, Japan, or “PO448”, a product name of an HRPO-labeled anti-rabbit IgG, commercialized by DAKO Japan Inc., Tokyo, Japan, as a secondary antibody. […]

As for `O=C1O[C@H]([C@@H](O)CO)C(O)=C1O[C@H]1O[C@H](CO)[C@@H](O)[C@H](O)[C@H]1O` [ascorbic acid 2-glucoside, 2-O-α-D-glucosyl-L-ascorbic acid], the Cell growth rate in the test with NHEK cells (100 μM, control without ascorbic acid 2-glucoside = 100%) is 148%; with NHEK cells (300 μM, control = 100%) it was 157%; in the test on NHEK cells (900 μM, control = 100%), 169%. Besides, the Reduced glutathione in the test on glutathione (0.5 mM) was 106%; in the test with glutathione (1.0 mM), 111%; in the test with glutathione (2.0 mM) it was 117%. For the same compound, the Total glutathione with glutathione (0.5 mM) is listed as 106%; with glutathione (1.0 mM), 111%; in the test on glutathione (2.0 mM), 117%. Also, the results for the “ZO-1 Concentration in cell extract” value with ZO-1 (0.5 mM) and in the test on ZO-1 (1 mM) were 72% and 92%, respectively.
